By IC50 is commonly meant the concentration at which inhibition is half-maximal. For orientation: inhibition in vivo means how much of the control response was suppressed.

This note sets out measurements from ChEMBL document CHEMBL1759941, “Discovery of pyrrolo[2,3-d]pyrimidin-4-ones as corticotropin-releasing factor 1 receptor antagonists with a carbonyl-based hydrogen bonding acceptor” (Bioorg Med Chem Lett, 2011).

The target of series [1] is T1, Corticotropin-releasing factor receptor 1 (Homo sapiens, UniProt P34998).
T1 sequence (P34998 whole entry): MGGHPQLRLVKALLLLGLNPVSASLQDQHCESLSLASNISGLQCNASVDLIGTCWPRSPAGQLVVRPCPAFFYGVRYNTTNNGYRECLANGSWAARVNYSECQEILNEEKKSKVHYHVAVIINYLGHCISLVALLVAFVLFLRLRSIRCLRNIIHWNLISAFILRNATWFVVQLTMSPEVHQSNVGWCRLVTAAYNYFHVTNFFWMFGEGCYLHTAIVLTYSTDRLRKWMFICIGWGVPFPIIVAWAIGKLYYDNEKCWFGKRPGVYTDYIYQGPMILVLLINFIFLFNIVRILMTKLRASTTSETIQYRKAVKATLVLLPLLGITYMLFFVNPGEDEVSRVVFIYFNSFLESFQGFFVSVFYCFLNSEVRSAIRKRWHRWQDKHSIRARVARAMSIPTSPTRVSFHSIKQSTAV
Nature of the series: Displacement of ovine [125I]CRF from human CRF1 receptor expressed in CHO cells. It counts as cell-based.

Series [2] relates to Mus musculus. Nature of the series: Ex vivo displacement of [125I]-sauvagine from CRF1 receptor in mouse frontal cortex at 30 mg/kg, po administered 60 mins before mouse decapitation and measured after 2 hrs by gamma scintillation counting. It counts as functional. On the technique in general: Loss of bound radioactivity is the signal in a displacement assay; it reports binding, not function.

In series [3] the test system is Mus musculus. Nature of the series: Ex vivo displacement of [125I]-sauvagine from CRF1 receptor in mouse Olfactory bulb at 30 mg/kg, po administered 60 mins before mouse decapitation and measured after 2 hrs by gamma scintillation counting. Format: functional.
Series [4] has as its system Mus musculus. Nature of the series: Ex vivo displacement of [125I]-sauvagine from CRF1 receptor in mouse pituitary gland at 30 mg/kg, po administered 60 mins before mouse decapitation and measured after 2 hrs by gamma scintillation counting. It counts as functional.
The nature of series [5]: Ratio of drug uptake in brain to plasma of mouse at 30 mg/kg, po. The settings on record: read-out: BBB. It counts as ADME, organism-based. More on the design: dose 30 mg/kg, route oral.

In series [1], `CCC(CC)Oc1cc(C)nc(Oc2c(C)cc(C)cc2C)c1C` yielded an IC50 of 92 nM.

Compound `CCCN(CCC)c1nc2c(c(-c3ccc(C(F)(F)F)cc3C(F)(F)F)cn2C)c(=O)n1C` yielded an IC50 in series [1] of 3000 nM.

In the case of `CCCCN(CC)c1nc(C)nc2c1c(C)cn2-c1c(C)cc(C)cc1C` [CP-154526], in series [1], the IC50 is 11 nM.

Turning to `CCCN(CCC)c1nc2c(c(-c3c(C)cc(C)cc3C)c(C)n2C)c(=O)n1C`, in series [1], the IC50 is 1100 nM.

On to `Cc1cc(C)c(-c2cn(C)c3nc(N(CC4CC4)CC4CC4)n(C)c(=O)c23)c(C)c1`, for which, in series [1], the IC50 amounted to 140 nM.

In series [1], `Cc1cc(C)c(-c2cn(C)c3nc(N4CCCCC4)n(C)c(=O)c23)c(C)c1` showed an IC50 of 3800 nM.

As to `CCCN(CCC)c1nc2c(c(-c3ccc(OC)cc3OC)cn2C)c(=O)n1C`, the IC50 in series [1] stood at 3000 nM.

The compound `CCCN(CCC)c1nc2c(c(-c3c(C)cc(C)cc3C)cn2C)c(=O)n1C` displayed an IC50 in series [1] of 120 nM. Also, the inhibition in vivo at 30 mg/kg with Mus musculus [2] turned out to be 35%; in the series with Mus musculus [3], 22%; in the series on Mus musculus [4], 53%. Moreover, in series [5], the Kp is 0.42.

As to `CCCCN(CCCC)c1nc2c(c(-c3c(C)cc(C)cc3C)cn2C)c(=O)n1C`, the IC50 in series [1] is 970 nM.

In turn, `CCCN(CCC)c1nc2c(c(-c3ccc(C)cc3C)cn2C)c(=O)n1C` showed an IC50 in series [1] of 1600 nM.

For `CCCN(CCC)c1nc2c(c(-c3c(OC)cc(OC)cc3OC)cn2C)c(=O)n1C`, the IC50 in series [1] was 3100 nM.

Consider `CCCN(CCC)c1nc2c(c(-c3ccc(C)cc3C)c(C)n2C)c(=O)n1C`, for which the IC50 in series [1] turned out to be 3300 nM.

Turning to `CCN(CC)c1nc2c(c(-c3c(C)cc(C)cc3C)cn2C)c(=O)n1C`, the IC50 in series [1] is 7700 nM.
